Like-named read-outs stand apart in the source and are kept apart here. Numbered stars: 1 amine (or outer) side, 2 acyl side, 3 side chain; on linkers, the order of the positions; unused ones are H or OH. Side chains are listed from the residue outwards. Peptide text beside a SMILES is read from it. * marks the point of attachment. Decanoyl(10-(4-HOOC-PhO)) = O=C(O)c1ccc(OCCCCCCCCCC(=O)*)cc1; Lactoyl(3-(imidazol-4-yl)) = O=C([C@@H](O)Cc1c[nH]cn1)*; γGlu = O=C(O)[C@H](CCC(=O)[*:2])N[*:1]; AEEA = NCCOCCOCC(=O)O
What was measured:
[1] = target: T1, Dipeptidyl peptidase-4 (DPP-IV) (Homo sapiens, UniProt P27487); assay: Resistance to DPP-IV degradation; type: in vitro ADME; details: for half-life: recombinant dipeptidyl peptidase-4 (DPP-IV), pH 7.4, incubation with DPP-IV, 37° C.; for In (concentration) of parent GLP-1 peptide drug: DPP-IV incubation 37° C.
T1 construct: purchased R&D Systems 1180-SE
T1 sequence (P27487 29-766 limits assumed): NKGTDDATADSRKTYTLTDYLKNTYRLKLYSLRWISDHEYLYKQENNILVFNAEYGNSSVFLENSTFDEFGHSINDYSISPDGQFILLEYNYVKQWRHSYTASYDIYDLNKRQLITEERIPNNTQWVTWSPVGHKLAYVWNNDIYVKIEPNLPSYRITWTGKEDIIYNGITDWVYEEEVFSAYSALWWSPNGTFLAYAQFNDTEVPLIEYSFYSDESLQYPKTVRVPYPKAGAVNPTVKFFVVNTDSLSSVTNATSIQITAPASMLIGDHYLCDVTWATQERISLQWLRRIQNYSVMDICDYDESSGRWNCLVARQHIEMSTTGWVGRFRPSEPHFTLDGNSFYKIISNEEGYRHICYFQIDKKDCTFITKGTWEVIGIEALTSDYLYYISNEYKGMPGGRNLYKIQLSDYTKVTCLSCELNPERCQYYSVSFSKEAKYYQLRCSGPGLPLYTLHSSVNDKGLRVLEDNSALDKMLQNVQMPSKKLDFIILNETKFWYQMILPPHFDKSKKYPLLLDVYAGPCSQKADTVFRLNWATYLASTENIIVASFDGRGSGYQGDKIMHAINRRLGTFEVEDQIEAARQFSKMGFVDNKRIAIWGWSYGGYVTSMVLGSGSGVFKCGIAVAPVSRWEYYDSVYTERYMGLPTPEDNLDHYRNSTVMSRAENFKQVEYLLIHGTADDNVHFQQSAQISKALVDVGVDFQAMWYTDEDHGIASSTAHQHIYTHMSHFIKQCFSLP
Protocol: The purpose of this experiment is to determine the degradation by Dipeptidyl peptidase-4 (DPP-IV) of the parent drugs of the prodrugs of the invention.
The stability of the parent GLP-1 drug of Example B2.1 was tested as described below.
HEPES Buffer (50 mM HEPES Buffer with 0.005% Tween20, pH 7.4)
10 ml 1 M HEPES+100 μl 10% Tween20 adjusted to pH 7.4 and diluted with MilliQ water ad 200 mL
1.0 mM in HEPES buffer 0.1% BSA (Sigma cat. no. A9418)
1.0 mM in hepes buffer pH 7.4
DPP-IV was Recombinant Dipeptidyl Peptidase, R&D Systems, cat no. 1180-SE
50 μl of DPP-IV (0.2 mg/mL), 25 mM MES, 0.7 M NaCl, pH 5.0
Add 200 μl 25 mM TRIS pH 8.0 to Stock vial (DPP-IV concentration 40 μg/mL). Just before use: 210 μl (40 μg/ml) is added 210 μl 50 mM HEPES (DPP-IV concentration 20 μg/mL)
Minimum 30 min, 37° C. with 600 μl 0.1% OVAlbumin. Then left overnight at 4° C. and washed times with 50 mM HEPES.
Minimum 150 min with HEPES buffer at 37° C.
The reactions were terminated by moving 25 μl of the sample into 150 μl cooled 1% TFA in EtOH. Samples were collected in a v-shaped 96-well plate (polypropylene, Costar 3957), (Cat no. cci-3957)). Samples were sealed and kept on ice until analyses.
Samples were diluted 5 times in 50% acetonitrile (1% formic acid) (20 μL+80 μL) and analysed with UPLC-MS.
The amounts of parent GLP-1 drug and DPP-IV cleaved drug were measured from the total ion counts and T½ was determined from a linear fit to the curve of ln (% parent GLP-1 drug) (Y) as a function of time (t), as follows: Y(t)=÷αt+k Math 3 T½=ln 2/α Math 4 T½ (÷BSA): 3466 min T½ (+0.001% BSA): 2311 min

[2] = target: T2, human GLP-1 receptor (Homo sapiens, UniProt P43220); assay: In vitro potency, AlphaScreen cAMP assay on membranes; type: biochemical; details: cAMP formation, membranes of BHK467-12A cells
T2 construct: expressed in transfected cells; host or cells: BHK cells, clone FCW467-12A (parent line BHKTS13), membranes
T2 sequence (P43220 24-463): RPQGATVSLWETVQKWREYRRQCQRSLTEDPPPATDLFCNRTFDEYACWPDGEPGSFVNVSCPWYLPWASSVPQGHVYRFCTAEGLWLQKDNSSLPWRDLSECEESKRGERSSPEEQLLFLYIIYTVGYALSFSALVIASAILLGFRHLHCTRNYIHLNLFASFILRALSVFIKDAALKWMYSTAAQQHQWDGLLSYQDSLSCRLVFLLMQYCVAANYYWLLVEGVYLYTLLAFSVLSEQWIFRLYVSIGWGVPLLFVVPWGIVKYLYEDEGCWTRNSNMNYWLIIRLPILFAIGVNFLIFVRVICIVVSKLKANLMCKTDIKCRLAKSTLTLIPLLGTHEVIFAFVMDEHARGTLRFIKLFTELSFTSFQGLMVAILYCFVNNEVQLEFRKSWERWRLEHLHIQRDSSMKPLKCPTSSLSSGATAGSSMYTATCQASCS
Protocol: The purpose of this example is to test the activity, or potency, in vitro of, for example, the GLP-1 parent drugs of the prodrugs of the invention.
Purified plasma membranes from a stable transfected cell line, BHK467-12A (tk-ts13), expressing the human GLP-1 receptor were stimulated with the GLP-1 drug in question, and the potency of cAMP production was measured using the AlphaScreen™ cAMP Assay Kit from Perkin Elmer Life Sciences. The basic principle of The AlphaScreen Assay is a competition between endogenous cAMP and exogenously added biotin-cAMP. The capture of cAMP is achieved by using a specific antibody conjugated to acceptor beads.
A stable transfected cell line and a high expressing clone were selected for screening. The cells were grown at 5% CO2 in DMEM, 10% FCS, 1% Pen/Strep (Penicillin/Streptomycin) and preferably 0.5 (alternatively 1.0 mg/ml) of the selection marker G418.
Cells at approximate 80% confluence were washed twice with PBS and harvested with Versene (aqueous solution of the tetrasodium salt of ethylenediaminetetraacetic acid), centrifuged 5 min at 1000 rpm and the supernatant removed. The additional steps were all made on ice. The cell pellet was homogenised by the Ultrathurax for 20-30 s in 10 ml of Buffer 1 (20 mM Na-HEPES, 10 mM EDTA, pH=7.4), centrifuged 15 min at 20,000 rpm and the pellet resuspended in 10 ml of Buffer 2 (20 mM Na-HEPES, 0.1 mM EDTA, pH=7.4). The suspension was homogenised for 20-30 s and centrifuged 15 min at 20,000 rpm. Suspension in Buffer 2, homogenisation and centrifugation was repeated once and the membranes were resuspended in Buffer 2. The protein concentration was determined and the membranes stored at −80° C. until use.
The assay was performed in flat-bottom 96-well plates (Costar cat. no: 3693). The final volume per well was 50 μl.
AlphaScreen cAMP Assay Kit from Perkin Elmer Life Sciences (cat. No: 6760625M); containing Anti-cAMP Acceptor beads (10 U/μl), Streptavidin Donor beads (10 U/μl) and Biotinylated-cAMP (133 U/μl). […]

SMILES: CC[C@H](C)[C@H](NC(=O)[C@H](Cc1ccccc1)NC(=O)[C@H](CCC(=O)O)NC(=O)[C@H](CCCNC(=N)N)NC(=O)[C@@H](NC(=O)[C@H](C)NC(=O)[C@H](CCC(N)=O)NC(=O)[C@H](CCC(=O)O)NC(=O)[C@H](CCC(=O)O)NC(=O)[C@H](CC(C)C)NC(=O)[C@H](Cc1ccc(O)cc1)NC(=O)[C@H](CCCCNC(=O)COCCOCCNC(=O)COCCOCCNC(=O)CC[C@H](NC(=O)CCCCCCCCCOc1ccc(C(=O)O)cc1)C(=O)O)NC(=O)[C@H](CO)NC(=O)[C@@H](NC(=O)[C@H](CC(=O)O)NC(=O)[C@H](CO)NC(=O)[C@@H](NC(=O)[C@H](Cc1ccccc1)NC(=O)[C@@H](NC(=O)CNC(=O)[C@H](CCC(=O)O)NC(=O)[C@H](C)NC(=O)[C@@H](O)Cc1c[nH]cn1)[C@@H](C)O)[C@@H](C)O)C(C)C)C(C)C)C(=O)N[C@@H](C)C(=O)N[C@@H](CCCCNC(=O)COCCOCCNC(=O)COCCOCCNC(=O)CC[C@H](NC(=O)CCCCCCCCCOc1ccc(C(=O)O)cc1)C(=O)O)C(=O)N[C@@H](CC(C)C)C(=O)N[C@H](C(=O)N[C@@H](CCCNC(=N)N)C(=O)NCC(=O)N[C@@H](CCCNC(=N)N)C(=O)NCC(=O)O)C(C)C [Example B2.1] ({Lactoyl(3-(imidazol-4-yl))}-AEGTFTSDVSK([AEEA-AEEA-γGlu-Decanoyl(10-(4-HOOC-PhO))])YLEEQAVREFIAK([AEEA-AEEA-γGlu-Decanoyl(10-(4-HOOC-PhO))])LVRGRG-OH)
- half-life ([1]; +0.001% BSA, read-out: T½ (+0.001% BSA)): 38.5 h
- half-life ([1]; without BSA, read-out: T½ (÷BSA)): 57.8 h
- In (concentration) of parent GLP-1 peptide drug ([1]; with BSA, time 1.0 minutes): 4.61
- In (concentration) of parent GLP-1 peptide drug ([1]; with BSA, time 32 minutes): 4.61
- In (concentration) of parent GLP-1 peptide drug ([1]; with BSA, time 60 minutes): 4.58
- In (concentration) of parent GLP-1 peptide drug ([1]; with BSA, time 120 minutes): 4.40
- In (concentration) of parent GLP-1 peptide drug ([1]; with BSA, time 183 minutes): 4.58
- In (concentration) of parent GLP-1 peptide drug ([1]; with BSA, time 1440 minutes): 4.47
- In (concentration) of parent GLP-1 peptide drug ([1]; without BSA, time 1.0 minutes): 4.61
- In (concentration) of parent GLP-1 peptide drug ([1]; without BSA, time 32 minutes): 4.59
- In (concentration) of parent GLP-1 peptide drug ([1]; without BSA, time 60 minutes): 4.63
- In (concentration) of parent GLP-1 peptide drug ([1]; without BSA, time 120 minutes): 4.50
- In (concentration) of parent GLP-1 peptide drug ([1]; without BSA, time 183 minutes): 4.64
- In (concentration) of parent GLP-1 peptide drug ([1]; without BSA, time 1440 minutes): 4.45
- EC50 [2]: 100 pM

Source: patent US9452225B2, “GLP-1 prodrugs” (Novo Nordisk A/S, priority 2012, dated 2016)
